According to publication PMC7011920, “Synthesis and biological evaluation of stilbene derivatives coupled to NO donors as potential antidiabetic agents” (Journal of Enzyme Inhibition and Medicinal Chemistry, 2018):
Where two headings read alike, the source gives them in different places.

How the values were obtained:
[1] = target: T1, aldose reductase (ALR2) (Mus musculus, UniProt P45376); assay: In vitro ALR2 inhibitory activity (crude enzyme, NADPH decrease at 340 nm); type: biochemical, mice
T1 construct: After homogenisation and centrifugation, the crude ALR2 from mice was obtained; from tissue
Method: The enzyme aldose reductase (ALR2) is a member of the aldo–keto reductase superfamily. The development and progression of chronic diabetic complications are confirmed to be quite related to the activation and/or over expression of ALR2[25]. Therefore, ALR2 inhibitors may play a critical role in preventing or treating these complications.
After homogenisation and centrifugation, the crude ALR2 from mice was obtained. The inhibitory activity of the compounds on ALR2 was carried out using crude enzyme and different concentrations of the compounds (1–1000 µg/ml) in 200 mM PBS (pH 6.2) containing 0.10 mM NADPH. The reaction was initiated by addition of glyceraldehyde and the decrease in the optical density of NADPH at 340 nm was recorded for 3 min. All experiments were run in triplicate. IC50 of the compounds was calculated. The flavonoid quercetin was used as a reference in the ALR2 assay.

[2] = system: STZ-induced diabetic mice; assay: Acute hypoglycaemic assay in STZ-diabetic mice; type: in vivo; conditions: for Blood glucose concentration: mean ± SEM, six mice
Method: The antidiabetic activity was determined by using a standard method. […] Especially, compound 7c caused significant decreases in blood glucose levels when compared with vehicle-treated groups (p < .05). […] In STZ-diabetic animals, the hypoglycaemic effect of pterostilbene (40 mg/kg of bw) was larger than 50% since 5 h and persisted throughout the experiment. Target compound 7c (40 mg/kg of bw) caused significant decreases in blood glucose levels compared with pterostilbene (40 mg/kg of bw).
Type II DM was induced in mice by a single intraperitoneal injection of freshly prepared STZ (Sigma Aldrich, St. Louis, MO) dissolved in 0.1 M citrate buffer, pH 4.5, in a […] of 120 mg/kg of bw. After seven days of STZ administration, blood glucose levels of each mouse were determined. Mice with blood glucose levels higher than 11 mM were considered diabetic and were included in the study.
STZ-induced diabetic mice and normal mice were placed in single cages with wire-net floors and deprived of food for 12 h before experimentation but allowed free access to tap water throughout. The compounds (at the doses of 10, 40, and 100 mg/kg of bw) were suspended in 0.05% Tween-80 in saline solution. Glibenclamide (10 mg/kg of bw) was suspended in the same vehicle. The target compounds were freshly prepared immediately before experimentation and administered by the intragastrical route at the doses of 10 ml/kg of bw. Control mice received only the vehicle (0.05% Tween-80 in saline solution) by the same route. Blood glucose levels were measured at 0, 1.5, 3, 5, 7, and 9 h after drugs administration.

[3] = system: AGEs (advanced glycation end products) formation; assay: In vitro inhibitory activity of AGEs formation (bovine serum albumin/glucose, fluorescence); conditions: 50% inhibition of fluorescence intensity of AGE relative to 0.1% DMSO; mean ± SD (n = 3)
Method: Advanced glycation end products are a group of complex and heterogeneous compounds, which are implicated in a number of biochemical abnormalities associated with diabetes[21]^,[22]. Therefore, the discovery of AGEs inhibitors would be beneficial to the prevention and treatment of diabetic or other pathogenic complications.
To prepare the AGE reaction solution, 10 mg/ml of bovine serum albumin in 50 mM PBS (pH 7.4) was added to 0.2 M glucose, and 0.02% sodium azide was added to prevent bacterial growth. The reaction mixture (3 ml) was then mixed with various concentrations (0.5–1000 µg/ml) of the target compounds (1 ml) dissolved in DMSO. After incubating at 37 °C for 14 d, the fluorescence intensity of AGE was determined by a fluorospectrophotometer (PE, Cincinnati, OH) with excitation and emission wavelengths at 350 nm and 420 nm[30], respectively. All experiments were run in triplicate. Aminoguanidine hydrochloride was used as a reference compound. The inhibition rate of AGEs formation and the IC50 value of each sample were calculated according to the formula. Inhibition rate %={[(AC−AB)−(AS−ASB)]/(AC−AB)}×100% where AC is the absorbance of control group (1.0 ml glucose +1.0 ml bovine serum albumin +1.0 ml sodium azide +1.0 ml DMSO); AB is the absorbance of blank group (1.0 ml PBS +1.0 ml bovine serum albumin +1.0 ml sodium azide +1.0 ml DMSO); AS is the absorbance of sample group (1.0 ml glucose +1.0 ml bovine serum albumin +1.0 ml sodium azide +1.0 ml target compound solution or aminoguanidine hydrochloride solution); ASB is the absorbance of sample blank group (1.0 ml PBS +1.0 ml bovine serum albumin +1.0 ml sodium azide +1.0 ml target compound solution or aminoguanidine hydrochloride solution).

[4] = target: T2, α-Glucosidase (Saccharomyces cerevisiae, UniProt P53341); assay: biochemical
T2 construct: purchased Sigma Aldrich G0660-750UN
T2 sequence (P53341 whole entry): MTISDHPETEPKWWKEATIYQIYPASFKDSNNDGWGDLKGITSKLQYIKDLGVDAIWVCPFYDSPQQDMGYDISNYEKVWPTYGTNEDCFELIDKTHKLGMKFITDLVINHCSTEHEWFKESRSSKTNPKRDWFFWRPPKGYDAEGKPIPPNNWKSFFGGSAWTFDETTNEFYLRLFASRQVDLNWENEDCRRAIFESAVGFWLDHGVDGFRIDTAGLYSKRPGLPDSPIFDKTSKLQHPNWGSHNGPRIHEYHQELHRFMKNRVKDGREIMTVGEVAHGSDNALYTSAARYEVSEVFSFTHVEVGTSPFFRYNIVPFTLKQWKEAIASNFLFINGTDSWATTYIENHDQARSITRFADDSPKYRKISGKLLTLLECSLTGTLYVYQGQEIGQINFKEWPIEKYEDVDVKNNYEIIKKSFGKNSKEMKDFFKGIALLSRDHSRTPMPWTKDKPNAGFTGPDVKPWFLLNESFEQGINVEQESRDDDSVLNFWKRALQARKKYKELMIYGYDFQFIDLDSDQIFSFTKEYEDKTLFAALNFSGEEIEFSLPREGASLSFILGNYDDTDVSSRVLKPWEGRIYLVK
Method: α-Glucosidases, enzymes anchored in the brush border of the small intestine, are responsible for catalysing the hydrolysis of carbohydrates.
α-Glucosidase (G0660-750UN, Sigma Aldrich, St. Louis, MO) and 4-nitrophenyl α-D-glucopyranoside (PNPG, Macklin) were dissolved in phosphate buffer (pH 6.8, 100 mM), and the test compounds were dissolved in DMSO solution. The experiment was divided into blank group, control group, sample blank group and sample group. The reagents were loaded in 96-well plates at the dose of the table (Table 3). The solution was bathed in 37 °C water for 10 min, after the end, enzyme solution was added. After reaction at 37 °C for 20 min, 70 µL Na2CO3 solution ([…]) was added to stop the reaction. All experiments were run in triplicate. […] Since PNPG can produce glucose and p-nitrophenol (PNP) under the action of α-glucosidase, PNP has the greatest absorption at 405 nm. The absorbance was determined by the microplate reader, and the inhibition rate of α-glucosidase and the IC50 value of each sample were calculated according to the formula. Inhibition rate %={[(AC−AB)−(AS−ASB)]/(AC−AB)}×100% where AC is the absorbance of control group; AB is the absorbance of blank group; AS is the absorbance of sample group; ASB is the absorbance of sample blank group.

[5] = read-out: IC50 value, ALR2 inhibitory activity
[6] = dose 40 mg/kg per os, 1.5 h vs 0 h
[7] = dose 40 mg/kg per os, 3 h vs 0 h
[8] = dose 40 mg/kg per os, 5 h vs 0 h
[9] = dose 40 mg/kg per os, 7 h vs 0 h
[10] = dose 40 mg/kg per os, 9 h vs 0 h
[11] = read-out: IC50 value, α-Glucosidase inhibitory activity

## Oc1ccc(/C=C/c2cc(O)cc(O)c2)cc1 [Resveratrol, reference compound]
[1]; [5]
  IC50: 17 ± 0.31 µM
[2]; dose 40 mg/kg per os, 0 h
  Blood glucose concentration: 20.0 ± 2.6 mM
[2]; dose 40 mg/kg per os, 1.5 h
  Blood glucose concentration: 16.3 ± 2.9 mM
[2]; [6]
  % Variation of glycaemia: –18.42%
[2]; dose 40 mg/kg per os, 3 h
  Blood glucose concentration: 14.0 ± 2.0 mM
[2]; [7]
  % Variation of glycaemia: –29.83%
[2]; dose 40 mg/kg per os, 5 h
  Blood glucose concentration: 12.4 ± 2.1 mM
[2]; [8]
  % Variation of glycaemia: –38.08%
[2]; dose 40 mg/kg per os, 7 h
  Blood glucose concentration: 11.2 ± 1.8 mM
[2]; [9]
  % Variation of glycaemia: –44.25%
[2]; dose 40 mg/kg per os, 9 h
  Blood glucose concentration: 10.7 ± 1.4 mM
[2]; [10]
  % Variation of glycaemia: –46.33%
[3]
  IC50: 0.83 ± 0.21 µM
[4]
  IC50: 242 ± 17 µM

## COc1ccc(Cl)cc1C(=O)NCCc1ccc(S(=O)(=O)NC(=O)NC2CCCCC2)cc1 [Glibenclamide, reference compound]
[2]; dose 10 mg/kg per os, 0 h
  Blood glucose concentration: 20.2 ± 5.4 mM
[2]; dose 10 mg/kg per os, 1.5 h
  Blood glucose concentration: 11.6 ± 4.9 mM
[2]; dose 10 mg/kg per os, 1.5 h vs 0 h
  % Variation of glycaemia: –42.63%
[2]; dose 10 mg/kg per os, 3 h
  Blood glucose concentration: 7.6 ± 3.9 mM
[2]; dose 10 mg/kg per os, 3 h vs 0 h
  % Variation of glycaemia: –62.32%
[2]; dose 10 mg/kg per os, 5 h
  Blood glucose concentration: 6.1 ± 3.6 mM
[2]; dose 10 mg/kg per os, 5 h vs 0 h
  % Variation of glycaemia: –69.58%
[2]; dose 10 mg/kg per os, 7 h
  Blood glucose concentration: 5.7 ± 3.6 mM
[2]; dose 10 mg/kg per os, 7 h vs 0 h
  % Variation of glycaemia: –71.84%
[2]; dose 10 mg/kg per os, 9 h
  Blood glucose concentration: 5.6 ± 3.6 mM
[2]; dose 10 mg/kg per os, 9 h vs 0 h
  % Variation of glycaemia: –72.11%

## COc1cc(/C=C/c2ccc(OCCO[N+](=O)[O-])cc2)cc(OC)c1 [3a, O4′-Nitrooxyethyl pterostilbene]
[1]; [5]
  IC50: > 1000 µM
other
  melting point: 142.2 to 143.2 °C
[3]
  IC50: 2.9 ± 0.09 µM
[4]; [11]
  IC50: > 1000 µM

## COc1cc(/C=C/c2ccc(OCCCCO[N+](=O)[O-])cc2)cc(OC)c1 [3b]
[1]; [5]
  IC50: > 1000 µM
other
  melting point: 110.9 to 111.3 °C
[3]
  IC50: 2.39 ± 0.11 µM
[4]; [11]
  IC50: > 1000 µM

## N=C(N)NN [AG, amino guanidine, reference compound]
[3]
  IC50: 283 ± 8.52 µM

## O=c1c(O)c(-c2ccc(O)c(O)c2)oc2cc(O)cc(O)c12 [Quercetin, reference compound]
[1]
  IC50: 3.71 ± 0.29 µM

## COc1cc(/C=C/c2ccc(O)cc2)cc(OC)c1 [Pterostilbene, reference compound]
[1]; [5]
  IC50: > 1000 µM
[2]; 40 mg/kg of bw, STZ-diabetic animals, since 5 h and throughout the experiment
  hypoglycaemic effect: > 50%
[2]; dose 40 mg/kg per os, 0 h
  Blood glucose concentration: 17.2 ± 7.0 mM
[2]; dose 40 mg/kg per os, 1.5 h
  Blood glucose concentration: 12.1 ± 6.4 mM
[2]; [6]
  % Variation of glycaemia: –29.91%
[2]; dose 40 mg/kg per os, 3 h
  Blood glucose concentration: 10.2 ± 6.2 mM
[2]; [7]
  % Variation of glycaemia: –40.89%
[2]; dose 40 mg/kg per os, 5 h
  Blood glucose concentration: 8.4 ± 5.6 mM
[2]; [8]
  % Variation of glycaemia: –51.42%
[2]; dose 40 mg/kg per os, 7 h
  Blood glucose concentration: 7.7 ± 5.3 mM
[2]; [9]
  % Variation of glycaemia: –55.36%
[2]; dose 40 mg/kg per os, 9 h
  Blood glucose concentration: 6.9 ± 4.3 mM
[2]; [10]
  % Variation of glycaemia: –59.82%
[3]
  IC50: 1.99 ± 0.51 µM
[4]; [11]
  IC50: > 1000 µM
